# In ChEMBL document CHEMBL1938349 (Bioorg Med Chem, 2012):
# pKi: −log10 of the molar value.
# Legend:
# [1] = biological target: T1, Alpha-2C adrenergic receptor (Homo sapiens, UniProt P18825); experiment: Displacement of [3H]clonidine from human Alpha-2C receptor by liquid scintillation counting
# T1 sequence (P18825 whole entry): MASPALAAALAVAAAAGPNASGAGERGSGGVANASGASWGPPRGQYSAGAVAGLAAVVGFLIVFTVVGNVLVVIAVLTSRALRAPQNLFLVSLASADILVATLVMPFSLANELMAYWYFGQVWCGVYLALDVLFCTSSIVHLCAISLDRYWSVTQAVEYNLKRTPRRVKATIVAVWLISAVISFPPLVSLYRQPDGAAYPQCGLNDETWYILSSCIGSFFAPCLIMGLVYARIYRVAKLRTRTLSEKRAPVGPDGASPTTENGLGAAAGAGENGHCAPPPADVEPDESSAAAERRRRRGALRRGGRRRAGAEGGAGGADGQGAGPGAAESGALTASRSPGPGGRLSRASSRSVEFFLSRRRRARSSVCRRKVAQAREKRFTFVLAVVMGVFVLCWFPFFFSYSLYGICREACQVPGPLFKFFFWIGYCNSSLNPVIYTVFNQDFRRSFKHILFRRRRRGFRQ
# [2] = biological target: D(2) dopamine receptor (Homo sapiens, UniProt P14416); experiment: Displacement of [3H]N-methylspiperone from human dopamine D2 receptor by liquid scintillation counting
# [3] = biological target: D(3) dopamine receptor (Homo sapiens, UniProt P35462); experiment: Displacement of [3H]N-methylspiperone from human dopamine D3 receptor by liquid scintillation counting
# [4] = biological target: T2, D(4) dopamine receptor (Rattus norvegicus, UniProt P30729); experiment: Displacement of [3H]N-methylspiperone from rat dopamine D4 receptor by liquid scintillation counting
# T2 sequence (P30729 whole entry): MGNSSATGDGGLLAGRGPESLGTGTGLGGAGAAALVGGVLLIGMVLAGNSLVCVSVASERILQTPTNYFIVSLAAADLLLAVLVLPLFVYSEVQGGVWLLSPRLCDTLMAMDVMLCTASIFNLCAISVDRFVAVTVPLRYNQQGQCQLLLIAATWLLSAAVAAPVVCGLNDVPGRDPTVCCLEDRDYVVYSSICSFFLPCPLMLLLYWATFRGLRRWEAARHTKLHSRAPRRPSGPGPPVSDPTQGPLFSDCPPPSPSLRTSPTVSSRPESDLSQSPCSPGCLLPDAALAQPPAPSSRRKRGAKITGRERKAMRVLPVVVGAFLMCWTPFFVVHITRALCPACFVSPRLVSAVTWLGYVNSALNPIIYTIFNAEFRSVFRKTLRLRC
# [5] = biological target: 5-hydroxytryptamine receptor 2A (Homo sapiens, UniProt P28223); experiment: Displacement of [3H]DOI from human 5HT2A receptor after 1 hr by liquid scintillation counting
# [6] = biological target: T3, 5-hydroxytryptamine receptor 2C (Rattus norvegicus, UniProt P08909); experiment: Displacement of [3H]mesulergine from rat 5HT2C receptor by liquid scintillation counting
# T3 sequence (P08909 whole entry): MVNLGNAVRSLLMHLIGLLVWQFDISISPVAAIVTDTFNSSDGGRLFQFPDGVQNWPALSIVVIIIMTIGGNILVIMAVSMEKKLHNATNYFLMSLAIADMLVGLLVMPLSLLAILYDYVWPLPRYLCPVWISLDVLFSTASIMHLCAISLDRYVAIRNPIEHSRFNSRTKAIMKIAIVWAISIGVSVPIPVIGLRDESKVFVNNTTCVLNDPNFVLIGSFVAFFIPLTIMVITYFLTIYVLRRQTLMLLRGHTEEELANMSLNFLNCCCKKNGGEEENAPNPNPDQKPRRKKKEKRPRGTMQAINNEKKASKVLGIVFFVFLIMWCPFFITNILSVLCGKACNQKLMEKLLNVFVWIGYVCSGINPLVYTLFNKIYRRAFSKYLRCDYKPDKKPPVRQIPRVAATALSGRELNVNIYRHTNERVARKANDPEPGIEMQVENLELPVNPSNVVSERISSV
# [7] = biological target: T4, 5-hydroxytryptamine receptor 1A (Homo sapiens, UniProt P08908); experiment: Displacement of [3H]8-OH-DPAT from human 5HT1A receptor by liquid scintillation counting
# T4 sequence (P08908 whole entry): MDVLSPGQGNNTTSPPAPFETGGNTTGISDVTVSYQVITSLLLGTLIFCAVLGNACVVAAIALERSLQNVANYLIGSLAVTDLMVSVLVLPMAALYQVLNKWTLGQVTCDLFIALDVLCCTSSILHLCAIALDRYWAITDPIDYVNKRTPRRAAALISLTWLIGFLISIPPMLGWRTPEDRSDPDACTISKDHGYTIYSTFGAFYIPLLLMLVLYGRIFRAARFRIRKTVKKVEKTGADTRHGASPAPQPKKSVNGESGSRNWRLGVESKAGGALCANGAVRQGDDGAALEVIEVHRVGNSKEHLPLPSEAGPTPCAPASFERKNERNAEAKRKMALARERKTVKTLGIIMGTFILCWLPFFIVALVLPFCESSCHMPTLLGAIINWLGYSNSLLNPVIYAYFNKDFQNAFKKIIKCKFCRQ
# [8] = biological target: Histamine H1 receptor (Homo sapiens, UniProt P35367)
# Chain of Histamine H1 receptor (P35367 whole entry): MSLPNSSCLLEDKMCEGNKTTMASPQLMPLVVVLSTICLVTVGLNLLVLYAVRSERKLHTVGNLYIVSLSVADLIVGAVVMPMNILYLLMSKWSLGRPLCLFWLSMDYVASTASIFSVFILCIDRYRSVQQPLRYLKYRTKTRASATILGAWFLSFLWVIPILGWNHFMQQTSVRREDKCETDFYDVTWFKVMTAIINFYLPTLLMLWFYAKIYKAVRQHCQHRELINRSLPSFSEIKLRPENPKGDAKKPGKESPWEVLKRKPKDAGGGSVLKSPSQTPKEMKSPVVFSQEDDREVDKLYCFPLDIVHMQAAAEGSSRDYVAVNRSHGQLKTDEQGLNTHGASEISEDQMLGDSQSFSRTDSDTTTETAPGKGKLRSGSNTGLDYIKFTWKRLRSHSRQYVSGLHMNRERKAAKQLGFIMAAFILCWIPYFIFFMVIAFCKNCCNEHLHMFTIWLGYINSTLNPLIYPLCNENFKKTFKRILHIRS
# Description: Displacement of [3H]pyrilamine from human H1 receptor by liquid scintillation counting
# Chain of D(2) dopamine receptor (P14416 whole entry): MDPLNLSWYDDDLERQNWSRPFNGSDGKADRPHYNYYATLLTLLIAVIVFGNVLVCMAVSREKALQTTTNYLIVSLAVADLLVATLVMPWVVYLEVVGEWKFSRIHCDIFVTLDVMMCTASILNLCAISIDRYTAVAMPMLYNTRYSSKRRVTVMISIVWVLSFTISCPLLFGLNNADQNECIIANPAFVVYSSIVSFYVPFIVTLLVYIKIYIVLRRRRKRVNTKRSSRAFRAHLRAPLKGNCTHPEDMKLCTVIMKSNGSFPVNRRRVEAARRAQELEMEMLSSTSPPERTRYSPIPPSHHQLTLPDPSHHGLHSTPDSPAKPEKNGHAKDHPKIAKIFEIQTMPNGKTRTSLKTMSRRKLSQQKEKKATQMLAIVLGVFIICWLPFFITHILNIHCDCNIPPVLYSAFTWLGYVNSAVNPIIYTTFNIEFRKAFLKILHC
# Chain of D(3) dopamine receptor (P35462 whole entry): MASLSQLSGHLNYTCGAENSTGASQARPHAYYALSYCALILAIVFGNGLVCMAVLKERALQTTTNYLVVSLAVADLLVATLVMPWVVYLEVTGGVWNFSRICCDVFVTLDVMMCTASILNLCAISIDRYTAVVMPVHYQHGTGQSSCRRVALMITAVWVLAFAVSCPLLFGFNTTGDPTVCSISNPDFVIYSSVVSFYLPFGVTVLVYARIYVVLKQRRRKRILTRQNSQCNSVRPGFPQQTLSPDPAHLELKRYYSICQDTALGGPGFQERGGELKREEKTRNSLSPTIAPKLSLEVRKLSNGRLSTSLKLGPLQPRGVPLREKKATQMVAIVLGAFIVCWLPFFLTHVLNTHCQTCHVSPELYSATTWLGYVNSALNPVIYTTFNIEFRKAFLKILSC
# Chain of 5-hydroxytryptamine receptor 2A (P28223 whole entry): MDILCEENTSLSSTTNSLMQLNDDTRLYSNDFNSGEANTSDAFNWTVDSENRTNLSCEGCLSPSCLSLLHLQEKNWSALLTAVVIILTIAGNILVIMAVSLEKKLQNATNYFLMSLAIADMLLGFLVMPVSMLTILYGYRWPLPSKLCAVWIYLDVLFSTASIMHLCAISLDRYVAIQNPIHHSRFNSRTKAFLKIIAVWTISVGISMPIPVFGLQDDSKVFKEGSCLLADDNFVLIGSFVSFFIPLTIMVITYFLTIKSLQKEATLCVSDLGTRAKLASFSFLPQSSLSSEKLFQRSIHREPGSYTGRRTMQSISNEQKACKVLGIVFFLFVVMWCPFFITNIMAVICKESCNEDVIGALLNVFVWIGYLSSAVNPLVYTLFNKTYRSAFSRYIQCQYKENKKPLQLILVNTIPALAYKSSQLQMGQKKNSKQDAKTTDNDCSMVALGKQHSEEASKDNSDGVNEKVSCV
SMILES,pKi [1],pKi [2],pKi [3],pKi [4],pKi [5],pKi [6],pKi [7],pKi [8]
O=C(CCCN1CCN(c2ncccn2)CC1)c1ccc(F)cc1,7.10,–,–,–,–,–,–,–
OC1(c2ccc(Cl)cc2)CCN(CCCOc2ccc(F)cc2)CC1,–,8.28,6.74,–,–,–,–,–
Fc1ccc(SCCCN2CCC(c3ccc(Cl)cc3)CC2)cc1,–,6.73,6.89,7.41,6.95,< 5.00,6.34,–
Fc1ccc(OCCCN2CCC(c3ccc(Cl)cc3)CC2)cc1,–,7.39,6.16,8.02,6.92,< 5.00,6.77,–
[O-][S+](CCCN1CCC(c2ccc(Cl)cc2)CC1)c1ccc(F)cc1 (stereo not drawn),–,6.00,6.61,7.46,6.65,< 5.00,6.21,–
Fc1ccc(CCCCN2CCN(c3ccc(Cl)cc3)CC2)cc1,–,–,6.58,8.11,7.09,–,6.95,–
Fc1ccc(SCCCN2CCN(c3ccc(Cl)cc3)CC2)cc1,–,6.68,6.37,8.06,7.28,–,6.78,–
Fc1ccc(SCCCN2CCN(c3ccc(C(F)(F)F)cc3)CC2)cc1,–,5.32,6.26,7.05,5.95,–,5.97,–
Fc1ccc(OCCCN2CCN(c3ccc(Cl)cc3)CC2)cc1,–,6.41,6.05,8.16,7.22,–,7.10,–
Fc1ccc(OCCCN2CCN(c3ccccc3)CC2)cc1,–,7.43,6.68,8.13,7.24,–,7.62,7.20
Clc1ccc(N2CCN(CCCOc3ccccc3)CC2)cc1,–,6.35,6.14,8.25,–,–,6.81,–
c1ccc(OCCCN2CCN(c3ccccc3)CC2)cc1,–,6.92,7.10,8.35,7.34,–,7.60,7.17
Fc1ccc(SCCCN2CCN(c3ncccn3)CC2)cc1,–,6.37,7.17,7.68,7.57,5.05,7.03,–
Fc1ccc(OCCCN2CCN(c3ncccn3)CC2)cc1,–,6.20,6.11,8.38,7.64,< 5.00,7.64,–
Fc1ccc(CCCCN2CCN(c3ccccn3)CC2)cc1,6.51,–,–,–,–,–,–,6.78
Fc1ccc(SCCCN2CCN(c3ccccn3)CC2)cc1,7.35,–,–,–,–,–,–,6.67
Fc1ccc(OCCCN2CCN(c3ccccn3)CC2)cc1,–,–,–,–,–,–,–,6.58
